Counter-ions that a name gives are not always drawn. Like-named read-outs stand apart in the source and are kept apart here.
Tests used:
[1] = tested on: Orlando strain Aedes aegypti females; conditions: essential oil or PBO alone, topical
Protocol: Plant essential oils were obtained from Berje, Inc. (Carteret, NJ, USA). […] Sucrose for sugar water was obtained from Domino (Baltimore, MD, USA).
Pupae were provided by the USDA prior to experiments.
J. Med. Entomol. […] Topical applications were performed by anesthetizing adult female mosquitoes on ice for 5 min, and then placing them on a cold, glass Petri dish to prevent reanimation. A Whatman No. 2 filter paper was used to prevent mosquitoes from coming in contact with excess condensation. A 0.2 μL volume of each treatment was applied to the pronotum of each mosquito using a Hamilton (Reno, NV, USA) repeating applicator with a gastight Hamilton syringe and placed in 470 mL deli paper cups. […] Ten mosquitoes were treated for each concentration representing one replicate, and at least three different cohorts of mosquitoes were used for each concentration in an effort to control for biological variability in the mosquitoes produced by the Orlando colony. A cohort was defined as a distinct rearing group (i.e., adult mosquitoes obtained from distinct batches of eggs placed in water to initiate development each week). Controls were performed using the vehicle, ethanol. Tulle fabric, fastened to the cup with a deli cup lid rim (center removed), was used to keep mosquitoes from escaping. Deli cups containing ten treated mosquitoes per concentration per replicate were placed in an incubator for the remainder of the experimental interval and kept at the same temperature and light cycle as during rearing. Knockdown, defined as the inability to fly or maintain normal standing posture, was recorded at 1 h, and mortality was recorded at 24 h. Mortality was defined as no movement, even after gently tapping the cup several times to assess response.
VI. Potentiation and antagonism of organophosphorus and carbamate insecticides. Econ. Entomol. […] To compare effects at discrete doses to one another or between those and control, an ANOVA (α=0.05) with a Tukey's post-test was used with an α value of 0.05.

[2] = tested on: female Aedes aegypti mosquitoes; type: in vivo; conditions: screened individually at the sublethal concentrations used in the mixtures (TCA 10, TFA 50 μg/cm^2)

SMILES	1 h % Knockdown ± SE, Synergist ([1]; 2 μg/insect) [%]	24 h % Mortality ± SE, Synergist ([1]; 2 μg/insect) [%]	1 h % Knockdown ± SE, Synergist ([1]; 10 μg/insect) [%]	24 h % Mortality ± SE, Synergist ([1]; 10 μg/insect, listed as Piperonyl butoxide (PBO))	toxicity by themselves [2]
CCCCOCCOCCOCc1cc2c(cc1CCC)OCO2 [PBO, Piperonyl butoxide]	6.7 ± 3.7	6.7 ± 2.4	21.7 ± 4	statistically significant	
CC(C)=CC1C(C(=O)O)C1(C)C (stereo not drawn) [TCA, 1R-trans-chrysanthemic acid]					no toxicity
CC1(C)[C@H](C=C(Cl)Cl)[C@H]1C(=O)O [TFA, (1R,3S)-3-(2,2-dichloroethenyl)-2,2-dimethylcyclopropanecarboxylic acid]					no toxicity

— patent publication US20240114903A1, “SYNERGISTIC MIXTURES COMPRISING PYRETHRUM FOR ARTHROPOD TOXICITY AND REPELLENCY” (University of Florida Research Foundation, Incorporated, priority 2021, published 2024)
